For assay [1], the target named is T1, AKR1C3 (Homo sapiens, UniProt P42330).
T1 construct: gift of Professor Trevor Penning (University of Pennsylvania School of Medicine)
T1 sequence (P42330 1-323): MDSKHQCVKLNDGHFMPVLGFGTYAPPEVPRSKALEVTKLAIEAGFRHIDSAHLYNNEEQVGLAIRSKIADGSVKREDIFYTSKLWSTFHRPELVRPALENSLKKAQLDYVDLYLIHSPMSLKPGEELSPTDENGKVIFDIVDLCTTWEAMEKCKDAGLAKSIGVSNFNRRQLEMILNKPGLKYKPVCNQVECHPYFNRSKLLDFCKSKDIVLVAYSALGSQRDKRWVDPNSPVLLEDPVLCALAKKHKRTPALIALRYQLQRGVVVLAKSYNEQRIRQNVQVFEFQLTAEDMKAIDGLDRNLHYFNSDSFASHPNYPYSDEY
As to the kind of experiment: Determination of kinetic parameters for AKR1C3 (fluorogenic substrate 5). Format: biochemical. How it is done:
Whether the activity of human enzymes may be imaged by probe 5 was investigated. Type 2 isozyme of 3α-HSD (AKR 1C3) was selected for this study owing to its important physiological role.
Fluorogenic substrate 5 reduction was monitored on a Hitachi F-4500 fluorimeter in Starna quartz cuvettes fluorometrically in 1 mL systems containing 100 mM potassium phosphate pH 6.0 containing excess of NADPH cofactor (250 μM) and various amounts of the substrate (0.1953-50 μM) dissolved in 4% acetonitrile. […] Cuvettes were mixed thoroughly after addition of cofactor, cosolvent, and substrate. Reactions were initiated by the addition of 4 μL of dilute AKR1C3 (115 μg/mL) and were corrected for nonenzymatic rates. All reactions were followed by monitoring the increase in fluorescence of the product alcohol for 5 minutes at λem 510 nm with λex 440 nm (Excitation and emission band pass slits both at 2.5 nm, lamp 900 V) at 37° C. The initial velocities, expressed in units of nanomoles per minute, were calculated according to previously published procedures (Wierzchowski, J.; Dafeldecker, W. P.; Holmquist, B.; Vallee, B. L. Anal. Biochem. 1989, 178, 57-62): initial rate=[nst×(Ft−F0)/(Fst)]/t where Ft and F0 represent the fluorescence at time t and 0, nst is the nanomoles of the product standard, and Fst is the fluorescence resulting from nst of product. Kinetic constants were approximated using the GraFit (Erithacus Software, Surrey, UK) non-linear regression analysis program to fit the untransformed data to a hyperbolic function as originally described (Wilkinson, G. N. Biochem. J. 1961, 80, 324-332), yielding estimated values of kcat, Km, and their associated standard errors.

Assay [2] relates to AKR1C1-AKR1C4. As to the kind of experiment: Substrate tolerance and selectivity across the four human AKR1C isozymes. Type of assay: biochemical. To be noted: AKR1C1-AKR1C4, purified enzymes, NADPH. From the text: AKR1C2 and AKR1C3 Selective Probes: Probes (5a-5i) were examined as substrates for the four purified human HSD isozymes (AKR1C1-AKR1C4) under standard assay conditions [catalytic quantities of enzyme, an excess of cofactor (NADPH)]. The initial reaction rates were used to derive standard kinetic parameters (kcat and Km, Materials and Methods).
Substrate tolerance of AKR1Cs: Isozyme Activity with 5a-5i: Activity of the second generation of fluorogenic substrates with the AKR1C isozymes was determined as follows. To a STARNA semi-micro fluorimeter cell (with 4 polished windows) was added 100 μL of 1 M potassium phosphate buffer (pH 6), 840 μL doubly deionized water, and 20 μL of 12.5 mM NADPH. After mixing the aqueous components thoroughly, 20 μL of acetonitrile was added as a cosolvent and mixed well. 20 μL of 2.5 mM second generation fluorogenic ketone in acetonitrile (5a-5i) was then added and mixed. 4 μL of undiluted AKR1C (provided generously by the Penning lab at concentrations of 2.5 mg/mL) were then added to the cuvette for a total of 10 μg purified enzyme in the 1 mL assay volume. Fluorescence arising from the respective alcohol reduction product was then monitored over the course of 5-10 minutes.
Binding constant and catalytic rates (Km and kcat) of the second generation of fluorogenic substrates was determined as follows. To a STARNA semi-micro fluorometer cell (with 4 polished windows) was added 100 μL of 1 M potassium phosphate buffer (pH 6), 840 μL doubly deionized water, and 20 AL of 12.5 mM NADPH. After mixing the aqueous components thoroughly, 20 μL of acetonitrile was added as a cosolvent and mixed well. […] Fluorescence arising from the respective alcohol reduction product was then monitored over the course of 3 minutes (Excitation and emission band pass slits both at 4 nm, lamp 700 V, λexc 410 nm, λem 510). The rate of product formation, expressed in units of nanomoles per minute, were calculated according to previously published procedures (Wierzchowski, J.; Dafeldecker, W. P.; Holmquist, B.; Vallee, B. L. Anal. Biochem. 1989, 178, 57-62): […]

Where [3] appears, read: 100 mM potassium phosphate pH 6.0, 250 μM NADPH, 37° C.
[4] abbreviates: Type 2 isozyme of 3α-HSD (AKR 1C3).

The results in this text go back to patent publication US20100048604A1, “Ligands for Aldoketoreductases” (priority 2004, published 2010).

Each structure is given as a SMILES string.

By Km is commonly meant the substrate concentration at which the rate is half of its maximum. Usually Vmax stands for the rate approached at saturating substrate.

Consider `CC(=O)c1cc(=O)oc2c3c4c(cc12)CCCN4CCC3` [compound 5, 8-Acetyl-2,3,5,6-tetrahydro-1H,4H-11-oxa-3a-aza-benzo[de]anthracen-10-one], for which, in assay [1] (setting [3]), the Kcat was determined as 0.1374 s⁻¹, the Km was 2.46 µM, the Spec. activity was determined as 0.226 µmol/min/mg and the maximal velocity (Vmax) is on record as 0.1039 nmol/min. Further, in assay [1] (setting [4]), the Kcat was determined as 0.137 s⁻¹ and the Km was found to be 2.5 µM. The “acceptance as substrate by the four human isozymes” value in assay [2] is listed as “all four human isozymes catalyzed the reduction”.
